Here are results for 3 compounds from paper PMC13489962, “Small-molecule modulation of β-arrestins” (Nature, 2026).

One experiment has as its target T1, βARR2 (Rattus norvegicus, UniProt P29067).
T1 construct: βARR1 or βARR2 construct, with their C terminus truncated (at amino acid 393 or 394, respectively); GST (pGEX4T1) (N, cleaved yes); made in house; host or cells: E. coli BL21 (DE3) pLysS
Put plainly: ITC binding to βARR2. The conditions noted are these: for stoichiometry N, βARR2 / Kd: ITC; for Kd: 25 °C, one-site model; for β-arrestin isoform preference: from ITC. The method, then:
The expression and purification of β-arrestins have been described previously[44],[62]–[64]. In brief, E. coli BL21 (DE3) pLysS cells (New England Biolabs: C2527I) carrying pGEX4T1-Rattus norvegicus βARR1 or βARR2 construct, with their C terminus truncated (at amino acid 393 or 394, respectively), were cultured in Terrific Broth (Teknova) medium at 37 °C. After OD600 reached 0.6–0.8, the cells were induced with 0.1 mM isopropyl-β-D-thiogalactopyranoside (IPTG) at 18 °C overnight. Bacteria were collected by centrifugation (4,000 rpm), and cell pellets were resuspended in lysis buffer (20 mM HEPES, pH 8, 150 mM NaCl, 10% glycerol, 1 mM EDTA, 0.2 mM dithiothreitol (DTT), 1 mM phenylmethylsulfonyl fluoride, and 1 mM benzamidine) at 4 °C for 1 h. Cell suspensions were sonicated, centrifuged (14,000 rpm, 30 min, 4 °C), and the supernatant was loaded onto pre-equilibrated glutathione–agarose resin (GoldBio). After 3 h of binding at 4 °C, the beads were washed, and thrombin was added for overnight cleavage. The proteins were further purified by anion exchange chromatography followed by size-exclusion chromatography using a Superdex 200 Increase 10/300 GL column on an ÄKTA FPLC system (GE Healthcare). Eluted fractions were analysed by SDS–PAGE, pooled, concentrated using 30 kDa MWCO Amicon Ultra-15 Centrifugal Filter devices, flash-frozen in liquid nitrogen, and stored in aliquots at −80 °C. The same rat βARR1 constructs with mutations (L129A, L129S, L129G, P131A, P133A, E134A, D135A, K138A, C140A, Y249A, C251A, E283A, K284A and R285A) were generated and purified in a similar manner. Recombinant Gα subunits (Gαs, Gαq and Gαi) were purified as GST fusion proteins using glutathione–agarose affinity chromatography as previously described. The heterotrimeric Gs protein complex, composed of Gαs, Gβ1 and Gγ2 subunits, was expressed in Sf9 cells using the baculovirus expression system and purified as previously described. M2R expression, purification and reconstitution into high-density lipoprotein (HDL) particles were performed as previously described. ERK2, SRC, p38α and JNK3 kinases were expressed and purified using previously established protocols[6],[16]. Protein concentrations for each protein were determined by ultraviolet absorption at 280 nm and extinction coefficients estimated using the ExPASy ProtParam tool[67].
ITC measurements were performed on a MicroCal iTC200 system at 25 °C. Prior to ITC experiments, all proteins (βARR1, βARR2 or βARR1 mutants) were extensively dialysed against 20 mM HEPES (pH 7.4), 100 mM NaCl, and 3 μM TCEP. Protein concentrations were determined by spectrophotometry at 280 nm, using extinction coefficients calculated from each protein sequence via the ProtParam program. The dialysis buffer was used to dilute DMSO stock solutions of β-arrestin small-molecule modulators to their final concentrations for measurements. For each ITC experiment, β-arrestin modulators (Cmpd-5 at 350 μM, Cmpd-46 at 450 μM, and Cmpd-64 at 450 μM) were loaded into the syringe and titrated into the calorimetric cell containing βARR1, βARR1 mutants or βARR2 (at about 30–40 μM, depending on the protein and experiment). Additional ITC experiments were also performed using purified GST-fused Gα subunits (Gαs, Gαq and Gαi; about 30 μM) and Gαiβγ heterotrimer (about 30 μM). Gα subunits were prepared in the same buffer (20 mM HEPES, pH 7.4, 100 mM NaCl, 3 μM TCEP), whereas the Gαiβγ heterotrimer was maintained in buffer supplemented with 0.05% DDM and 10 μM GDP, with matched DMSO carrier conditions. Modulators (300 μM) or corresponding DMSO controls were loaded and titrated as described above. The reference cell was filled with distilled water. In all experiments, the titration sequence typically consisted of an initial 0.4 μl injection, followed by 19 injections of 2 μl each, with a 180-s interval between injections to allow thermal power to return to baseline. […]

For experiment [1], the system named is adult ventricular cardiomyocytes (AT1R). Put plainly: Adult ventricular cardiomyocyte contractility. It counts as cell-based, mouse. Particulars: 25 μM, 20 min; TRV027 10 μM; paced at 1 Hz. On the procedure: All animal experiments were approved by the Institutional Animal Care and Use Committee (IACUC) at Duke University Medical Center and performed in accordance with relevant guidelines and regulations. Ventricular cardiomyocytes were freshly isolated from 12- to 16-week-old C57BL/6J wild-type mice using a standard Langendorff perfusion system[39],[74]. The heart was initially cannulated through the aorta and then perfused with an oxygenated buffer at 37 °C (120 mM NaCl, 14.8 mM KCl, 0.6 mM KH2PO4, 0.6 mM Na2HPO4, 1.2 mM MgSO4·7H20, 10 mM HEPES, 4.6 mM NaHCO3, 30 mM taurine, and 5.6 mM glucose, pH 7.3). After 2 min, the buffer was switched to a digestion solution containing 2.4 mg ml^−1 collagenase (Worthington). Following 8 min of digestion, ventricles were transferred to a stopping buffer that included 10% calf serum. Myocytes were then manually dissociated and gradually brought to a physiological Ca^2+ concentration (1.2 mM). Isolated cardiomyocyte was first pretreated with DMSO (0.1%), C5, C46 or C64 (25 µM) for 20 min followed by treatment with HBSS (basal), angiotensin II (positive control, 10 µM) or TRV027 (10 µM). Cells were plated in a chamber (Ionoptix) on a Nikon Eclipse TE300 inverted microscope (40× 0.9 NA objective, MRF00400, Nikon). Cardiomyocytes were paced at 1 Hz and 20 V (MyoPacer, Ionoptix), and sarcomere length was recorded by a MyoCam-S camera (Ionoptix). Ten consecutive contractions per cell (7–12 cells per condition) were averaged to quantify contractility and kinetic parameters (IonWizard 7.2). […] Sample size represents the number of hearts at each condition derived from an average of 7–12 cells per heart for each condition. Statistical comparisons between conditions were performed using one-way ANOVA followed by Sidak post hoc test.

“Also recorded” adds a separate entry of the source.

T1 sequence (P29067 1-394): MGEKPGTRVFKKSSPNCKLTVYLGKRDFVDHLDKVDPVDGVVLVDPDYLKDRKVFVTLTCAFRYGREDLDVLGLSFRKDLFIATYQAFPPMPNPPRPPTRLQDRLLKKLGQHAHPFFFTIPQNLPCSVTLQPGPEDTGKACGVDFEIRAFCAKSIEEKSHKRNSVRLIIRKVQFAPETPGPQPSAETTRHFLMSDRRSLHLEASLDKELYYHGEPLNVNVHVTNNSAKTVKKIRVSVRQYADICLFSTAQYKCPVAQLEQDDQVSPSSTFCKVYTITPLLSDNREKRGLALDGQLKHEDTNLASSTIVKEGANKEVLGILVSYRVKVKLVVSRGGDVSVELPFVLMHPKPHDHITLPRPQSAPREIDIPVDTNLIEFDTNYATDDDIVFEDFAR

For `C=C1C(=O)[C@]23[C@H](O)[C@H]1CC[C@H]2[C@@]12CO[C@]3(O)[C@@H](O)[C@@H]1C(C)(C)CC[C@@H]2O` [Cmpd-5, (1S,4aR,5S,6S,6aR,9S,11aS,11bS,14R)-1,5,6,14-tetrahydroxy−4,4-dimethyl-8-methylenedecahydro-1H-6,11b-(epoxymethano)-6a,9-methanocyclohepta[a]naphthalen-7(8H)-one], on βARR2, the “stoichiometry N, βARR2” value turned out to be 0.84; binding was put at a Kd of 0.563 ± 0.045 µM; the “β-arrestin isoform preference” value is on record as “bound both isoforms comparably; also recorded: bound each isoform similarly”. In experiment [1], the “effect on TRV027-enhanced sarcomere shortening, contraction and relaxation velocity” value (“effect” for short) is reported as “significantly inhibited”.

`C=C1C(=O)C2=CC1CCC(=O)C1(C)CCC(OCC)C(C)(C)C1CC2O` (centres unmarked) [Cmpd-46, (Z)-3-ethoxy-6-hydroxy-4,4,13a-trimethyl-9-methylene-1,2,3,4,4a,5,6,9,10,11,12,13a-dodecahydro-7,10-(metheno)benzo[11]annulene-8,13-dione]: at βARR2, the “stoichiometry N, βARR2” value was 0.94; the Kd was determined as 0.753 ± 0.054 µM; the “β-arrestin isoform preference” value is reported as “slight βarr2 preference; also recorded: modest βARR2 preference”. In addition, the “effect” value in experiment [1] is reported as “significantly inhibited”.

Take `C=C1C(=O)OC2CC3(C)OC3CCC(C)=CC(OC(C)=O)C12` (centres unmarked) [Cmpd-64, (Z)-4,10a-dimethyl-7-methylene-8-oxo-1a,2,3,6,6a,7,8,9a,10,10a decahydrooxireno[2’,3’:8,9]cyclodeca[1,2-b]furan-6-yl acetate]: on βARR2, the “stoichiometry N, βARR2” value came to 0.91 and the Kd worked out at 0.207 ± 0.054 µM. Further, the “effect” value in experiment [1] is recorded as “significantly inhibited”.
